Entries after “also recorded” stand apart in the source; their conditions may differ. Where a name gives a salt, the structure may show the parent alone. Read-outs that look alike come from different tables or passages of the source.
How the values were obtained:
ATZ in HTO/Z cells = test: HTO/Z cells, Western blot analysis for AT; assay type: cell-based, human; conditions: for ATZ levels in the cell line: HTO/Z mammalian cell line model of AT deficiency
Experimental: The cells were incubated for 48 hrs with fluphenazine in several different concentrations and then subjected to Western blot analysis for AT. […] The effect is evident at doses of 1-10 μM. […] This is different from CBZ which appears to affect autophagic as well as proteasomal degradation.

sGFP::ATZ [1] = test: LOPAC library high-content primary screen for sGFP::ATZ accumulation in transgenic animals; assay type: in vivo, C. elegans; conditions: for Rank-score: 24 h
mCherry::LGG-1 = test: Induction of autophagy in transgenic animals expressing Pnhx-2mCherry::lgg-1; assay type: in vivo, C. elegans; conditions: compared with well-fed animals treated with DMSO (diffuse)
Description: FIG. 18A-E. Induction of autophagy by hit compounds. Images of transgenic animals expressing Pnhx-2mCherry:lgg-1 treated with various compounds are shown. Images were acquired using a Nikon instruments TiEclipse widefield light microscope fitted with a 20× Plan Apochromat objective. Images were then deconvolved using Volocity (Perkin Elmer, v 5.3.2). Deconvolved z planes were then merged to a single plane. Well-fed animals treated with DMSO (A) show a diffuse mCherry expression throughout the intestine. […] Starved (E) animals are included as a positive control for autophagy. Scale bar, 50 μm.
Macroautophagy is a cellular process in which a double membrane envelops cytosolic components or organelles (autophagosome) and delivers this material to a lysosome (autophagolysosome) for degradation and recycling (reviewed in 79). LGG-1/LC3/Atg8 is a diffuse cytosolic protein that participates in autophagosome formation and becomes inserted into the autophagosome membrane (80). Upon autophagosome formation, LGG-1 fused to mCherry changes its cytoplasmic distribution pattern from diffuse (lower fluorescence intensity) to punctate (higher fluorescence intensity) (80). To determine whether the imaging system could follow this process, a strain expressing a Pnhx-2mCherry::lgg-1 transgene was examined after starvation, a potent inducer of intestinal autophagosome formation (81). In well-fed animals, the diffuse cytoplasmic fluorescence in the intestinal cells was well above that of the N2 background (FIGS. 13K-13L, 13O-13Q). To detect mCherry::LGG-1 puncta, the diffuse fluorescence intensity of the well-fed animals was used to calibrate a threshold from which the SpotDetector BioApplication could detect any high-intensity spots. Although basal autophagy in the well-fed animals yielded a few spots (FIG. 13O), the large number of distinct puncta in the starved animals (FIGS. 13M, 13N, 13O-Q) indicated a marked increase in autophagy that was detected best by a statistically significant increase in spot count or total spot intensity per animal (FIGS. 13O and 13Q, respectively). […]

sGFP::ATZ [2] = test: Hit compound characterization: dose-response in the sGFP::ATZ HCS assay; assay type: in vivo, C. elegans; parameters: key to dose-dependent response: c: Compound demonstrated a dose-dependent response.; Compound failed to demonstrate a dose-dependent response; conditions: for degradation of aggregated ATZ protein: Caenorhabditis elegans model system; for GFP+ inclusions in ATZ worms: at 10 μM; for effect on sGFP::ATZ accumulation: dose-response, 0-100 μM; for dose-dependent response: retest at 0-100 μM, 24 or 48 hours
Experimental: Imaging of animals using the ArrayScan VTI: Prior to imaging, worms were anesthetized by adding 30 μl of 0.02 M NaN3 in PBS to each well. Plates were resealed, inverted twice, and incubated for 5 minutes at room temperature. Images were acquired with the ArrayScan VTI HCS Reader fitted with a 2.5× objective and a 0.63× coupler using a 2-channel (TRITC and GFP) assay. Real-time analysis was performed using the SpotDetector BioApplication optimized to quantify fluorescent protein expression in C. elegans. Image acquisition and analysis of a 384-well plate was completed in <45 minutes. The total number of animals in the well was determined by counting the number of red heads (Pmyo-2mRFP) in the TRITC channel. Total spot area or total spot intensity was determined by quantifying the GFP-positive spots in the GFP channel. Total spot area or total spot intensity per animal was determined by dividing the values from the GFP channel by that from the TRITC channel.
Hit compound characterization: Compounds that were identified as potential hits were purchased (if available) and retested for verification. […] Compounds that produced a response in a dose-dependent manner were further tested for a time-dependent response. Compound dose-response curves were performed by dispensing 15 μl of a 4× stock solution into 384-well plates containing 15 μl of assay medium (see above). Thirty-five animals were sorted into each well bringing the volume to ˜60 μl. The final compound concentrations in each well varied from 0-100 μM. Assay plates were incubated in a 22° C. incubator for 24 or 48 hours. Each compound was tested in quadruplicate in at least 2 independent experiments.
Statistical evaluation: Statistical evaluation of data was performed using Prism® (Graphpad Software). The significance of actual and predicted data in FIGS. 12, 14 and 15 was determined using a linear regression analysis and comparing the slope and goodness-of-fit (r2) values. Statistical significance of the spot count, spot area and spot intensity values between N2 (wild-type) and various transgenic lines in FIG. 13 and dose-response in FIG. 17 was determined using an unpaired, one-tailed, Student's t-test.
Compound screen: To test the HCS protocol, a pilot drug screen was performed using the library of pharmacologically active compounds (LOPAC1280™ 1280 compounds). Tight gating parameters for total fluorescence were used to sort 35 young adult Pnhx2sGFP::ATZ animals into wells of 384-well plates containing […] of a LOPAC compound and 0.5% DMSO. Pnhx2sGFP::ATZ animals incubated with 0.5% DMSO served as untreated controls and were placed in the first-two and last-two columns of each plate. In a representative experiment, plate 1 of the LOPAC library was set-up for screening on day 1, and 3 other plates were set-up on the next day. After 24 incubation at 25° C., animals were immobilized by the addition of NaAz and placed in the ArrayScan VTI for automated imaging. To examine for systematic errors, the raw data (total spot area/animal) were depicted as a plate-well scatter plot (FIG. 17A). […] This difference reflects a wider sort-window used to collect animals on day 1 in comparison to that used on day 2. As the average values of the negative controls and that of the sample wells were similar, we combined the control and samples wells for normalization and to identify potential hits using the z-score (FIG. 17B). The ArrayScan VTI reads microtiter plates by rows, alternating from left-to-right, and then right-to-left. For some assays, we noted that the control fluorescence values would drift upwards slightly in rows towards the bottom of the plate. This drift appeared to correlate with an increase in chamber temperature during the scanning period and was minimized by cooling the chamber with a fan or shortening the read times by using 2.5× objective with a 0.6 coupler. Nonetheless, intra-plate variation was controlled for by presenting the data as a B-score (FIG. 17C). […]

ATZ = conditions: mouse model of AT deficiency; cited from earlier work
C. elegans = conditions: 0-100 mM, 4 hours, SYTOX Green uptake
Experimental: Animals were washed 5 times with M9 media and stained with 2 μM SYTOX™ Green (Invitrogen) for 5 minutes at room temperature (84). Approximately 50 animals/well were dispensed into an optical bottom black walled 96 well plate (Nunc Thermo Fisher Scientific, Rochester, N.Y., USA). Wells were imaged using the ArrayScan VTI over the entire area of the well in brightfield, red (TRITC) and green (GFP) channels at 50× magnification. The total number of animals and the number of dead bodies were determined by counting red and green spots, respectively. Data from SpotDetector algorithm were confirmed by manual counting of the live and dead animals. Percent dead=(the number of green objects detected/total number of animals)×100.
To determine whether the system could discriminate dead from live intestinal cells, we scanned and analyzed young adult animals exposed to different concentrations of NaAz in the presence SYTOX® Green.

SMILES | ATZ levels in the cell line (ATZ in HTO/Z cells) | mCherry::LGG-1 distribution pattern (autophagic activity) (mCherry::LGG-1) | degradation of aggregated ATZ protein (sGFP::ATZ [2]) | GFP+ inclusions in ATZ worms (sGFP::ATZ [2]) | effect on sGFP::ATZ accumulation (sGFP::ATZ [2]) | dose-dependent response (sGFP::ATZ [2]) | also measured
OCCN1CCN(CCCN2c3ccccc3Sc3ccc(C(F)(F)F)cc32)CC1 [fluphenazine dihydrochloride, 4-[3-[2-(Trifluoromethyl)phenothiazin-10-yl]propyl]-1-piperazineethanol] | effective in reducing ATZ levels | markedly punctate distribution pattern indicative of increased autophagic activity | able to promote degradation of aggregated ATZ protein | almost complete elimination of the inclusions | dose-dependent decrease in sGFP::ATZ accumulation; also recorded: dose-dependant decrease in sGFP::ATZ accumulation; also recorded: dose-dependent effect; also recorded: decreased | fluphenazine dihydrochloride^c | doses at which the decrease in insoluble ATZ is evident (ATZ in HTO/Z cells; HTO/Z cells, 48 hrs): 1 to 10 µM; levels of the control GAPDH (ATZ in HTO/Z cells; HTO/Z cells, 48 hrs): no significant change; soluble ATZ (ATZ in HTO/Z cells; HTO/Z cells, 48 hrs): increase; insoluble ATZ levels (ATZ in HTO/Z cells; HTO/Z cells, 48 hrs, several concentrations): dose-dependent decrease; ATZ levels in the cell line (ATZ in HTO/Z cells; listed as fluphenzine hydrochloride): decreased ATZ; Overall rank-order (sGFP::ATZ [1]): 23; Rank-score (sGFP::ATZ [1]; 50 µM): 81.0
NC(=O)N1c2ccccc2C=Cc2ccccc21 [carbamazepine] |  |  |  |  |  |  | amount of ATZ accumulated in the liver (ATZ): decrease
[N-]=[N+]=[N-] [sodium azide] |  |  |  |  |  |  | number of dead animals (C. elegans): dose dependent increase
O=c1[nH]c2ccccc2n1C1CCN(CCCC(c2ccc(F)cc2)c2ccc(F)cc2)CC1 [pimozide, 1-[1-[4,4-bis(4-fluorophenyl)butyl]-4-piperidyl]-1,3-dihydrobenzoimidazol-2-one] | effective in reducing ATZ levels; also recorded: decreased ATZ | markedly punctate distribution pattern indicative of increased autophagic activity | able to promote degradation of aggregated ATZ protein | almost complete elimination of the inclusions | dose-dependent decrease in sGFP::ATZ accumulation; also recorded: dose-dependant decrease in sGFP::ATZ accumulation; also recorded: dose-dependent effect; also recorded: decreased | pimozide^c | Overall rank-order (sGFP::ATZ [1]; among compounds that decreased ATZ accumulation, based on relative rank-scores): 33; Rank-score (sGFP::ATZ [1]; average of compound rankings by ascending B-score from two independent screens, 50 μM, <110 decreased, >1225 increased sGFP::ATZ inclusions): 107.5

— US9820990B2, “Methods of treating disorders associated with protein aggregation” (University of Pittsburgh—Of the Commonwealth System of …, priority 2009, dated 2017)
